Data on two compounds can be found in patent US20250332176A1, “TREATMENT FOR FIBROSIS AND INHIBITION OF FIBROSIS” (GALMED RESEARCH AND DEVELOPMENT LTD, priority 2022, published 2025).

This assay relates to Male C57BL/12 mice. Put plainly: Bleomycin (BLM)-induced pulmonary fibrosis model. The note with it: bleomycin 1.5 U/kg intratracheal, prophylactic, day 0→21. It counts as in vivo. The method, then: The following model was employed: • Male C57BL/12 mice,22-26 g • Induction by administration of Bleomycin (1.5 U/kg), intratracheal • Ref. Comp.: Pirfenidone, 100 mg/kg, p.o., BID • Treatment Mode: Prophylactic (from day 0→21)
Pulmonary fibrosis was induced by bleomycin (BLM) and treated with aramchol (meglumine salt). As a reference, results for the known anti-idiophatic pulmonary fibrosis agent pirfenidone are also presented, in FIGS. 26A-26B, where hydroxyproline was used as biomarker for fibrosis (hydroxyproline use as idiophatic pulmonary fibrosis biomarker is disclosed in “Lung fibrosis is ameliorated by pirfenidone fed in diet after the second dose in a three-dose bleomycin-hamster model”, Iyer, Swarnalatha N.; Margolin, S. B.; Hyde, D. M.; Giri, S. N.; Experimental Lung Research (1998), 24(1), 119-132; and “Simple determination of L-hydroxyproline in idiopathic pulmonary fibrosis lung tissues of rats using non-extractive high-performance liquid chromatography coupled with fluorescence detection after pre-column derivatization with novel synthetic 9-acetylimidazol-carbazole”, Ren, Y.; Zhao, J.; Shi, Y.; Chen, C.; Chen, X.; Lv, C.; Journal of Pharmaceutical and Biomedical Analysis 2017, 142, 1-6).

For the compound `CCCCCCCCCCCCCCCCCCCC(=O)N[C@H]1CC[C@@]2(C)[C@@H](C1)C[C@@H](O)[C@@H]1[C@@H]2C[C@H](O)[C@]2(C)[C@@H]([C@H](C)CCC(=O)O)CC[C@@H]12` [aramchol], the “histopathology of the lungs (H&E, COL1A1, aSMA; FIG. 27)” value is reported as “very similar to the one of pirfenidone”. Besides, where the note is “compared to pirfenidone”, the “Ashcroft score, COL1A1 and aSMA quantification (FIGS. 28A-28E)” value is “treats the fibrosis in better (higher) extent and has more significant effect”. For the compound `Cc1ccc(=O)n(-c2ccccc2)c1` [pirfenidone, reference compound], the “histopathology of the lungs (H&E, COL1A1, aSMA; FIG. 27)” value is reported as “much more similar to the one without the fibrosis”.
